Assay [1] has as its target T1, PP1c (Homo sapiens, UniProt P36873). In words: PP1c catalytic activity assay (EnzChek). It counts as biochemical. Particulars: purified PP1c 30 nM, 30 minutes at 4° C. As for the experimental part:
Residual activity of PP1c was then measured using the EnzChek Phosphatase Assay Kit (Thermo Fisher Scientific) according to the supplier's instructions.

The target in another assay is T2, PPP1R15A-PP1 complex (Homo sapiens, UniProt O75807).
T2 construct: the cDNAs encoding amino acids 325-636 of PPP1R15A; made in house; host or cells: R15A fragment: E. coli BL21-Gold; BAP-PP1γ: Sf9 insect cells (baculovirus)
Briefly: SPR steady-state binding to R15A-PP1c holophosphatase on streptavidin chip. The conditions noted are these: steady-state affinity. As for the experimental part:
(§1) The streptavidin coated surface was activated by 1 min injection with a solution of 50 mM NaOH and 1 M NaCl. Biotin-PP1 was diluted in the running buffer (50 mM Tris pH 7.5, 100 mM NaCl, 0.1 mM EGTA, 1 mM MnCl2, 0.05% Tween 20) and injected at approximately 300 nM concentration directly to streptavidin coated surface for 100 sec or to reach immobilization level of biotin-PP1 corresponding to ˜7000 RU. A blank immobilization was performed for one of the SA sensor chip surface to use as a reference.
(§2) With minor deviations, the same procedure and conditions were used in all binding experiments. Small molecules were stored as 50 mM stock solutions in 100% DMSO. Prior to determining binding constants, serial dilutions of either 12 or 8 concentrations of the compounds were prepared in the running buffer in a 96-well plate. […] Then, without regenerating the surface, the compound dilution series was injected onto the surface of the chip Sensorgrams were analyzed using the Biacore T200 evaluation software and the binding constants determined based on a steady-state model. Kinetic experiments are carried out using different concentrations of the compound and their respective equilibrium binding levels determined.
(§3) Surface Plasmon Resonance (SPR) was used to measure the binding affinity of compounds to the PPP1R15A/B-PP1 phosphatase complex. Biotin acceptor peptide (BAP) was fused to the N-terminus of PP1γ, which enables the biotinylation of the BAP-tagged protein in Sf9 insect cells. After purification the BAP-PP1γ protein was captured on a streptavidin sensor chip (SA-chip, GE healthcare) to a response level of ˜5.000 RU. Using controlled biotinylation enables orientated and uniform immobilization on the sensor chip surface. The PP1γ was then used to capture PPP1R15A/B and form a holophosphatase complex on the surface of the streptavidin chip. This complex can then be used to test binding of compounds. 10 μM PPP1R15A/B protein concentration was used to form the holophosphatase complex during a 80 s injection. […] After the concentration series (8 or 12 concentrations) is completed the surface is regenerated with 3 M NaCl and we can capture R15A/B again to form a fresh holophosphatase complex to measure a binding of another compound concentration series. Analysing the level of equilibrium binding as a function of concentration gives interaction affinities or steady-state binding affinity (KD).
(§4) The streptavidin coated surface was activated by 1 minute injection with a solution of 50 mM NaOH and 1 M NaCl three times at a flow rate of 10 μl/min. bio-GBZ or bio-PP1c was diluted in the running buffer (50 mM Tris pH 7.5, 100 mM NaCl, 0.1 mM EGTA, 0.05% Tween 20, 0.1% DMSO) and injected at approximately 300 nM concentration at a flow rate of 10 μl/min directly to streptavidin coated surface to reach immobilization level of bio-GBZ or bio-PP1c corresponding to ˜200 and 6000 RU, respectively. A blank immobilization was performed for one of the SA sensor chip surface to use as a reference.
(§5) With minor deviations, the same procedure and conditions were used in all binding experiments. Small molecules were stored as 50 mM stock solutions in 100% DMSO. Prior to determining binding constants, serial dilutions of either 12 or 8 concentrations of the compounds were prepared in the running buffer in a 96-well plate. […] This was followed by 1 minute stabilization period, to wash off any unspecific binding. […]

The next assay has as its target T3, PPP1R15B-PP1 complex (Homo sapiens, UniProt Q5SWA1).
T3 construct: 340-698 of PPP1R15B were His-tagged and cloned into pMAL-c5x; made in house; host or cells: R15B fragment: E. coli BL21-Gold; BAP-PP1γ: Sf9 insect cells (baculovirus)
Briefly: SPR steady-state binding to R15B-PP1c holophosphatase on streptavidin chip. The conditions noted are these: for pKd: SPR, steady-state affinity. As for the experimental part:
as §1, §2, §3, §4
With minor deviations, the same procedure and conditions were used in all binding experiments. Small molecules were stored as 50 mM stock solutions in 100% DMSO. Prior to determining binding constants, serial dilutions of either 12 or 8 concentrations of the compounds were prepared in the running buffer in a 96-well plate. […] This was followed by 1 minute stabilization period, to wash off any unspecific binding. Then, without regenerating the surface, the compound dilution series was injected onto the surface of the chip at a flow rate of 30 μl/min for 1 minute, followed by 2 minutes dissociation time. After each dilution series the surface was regenerated using 3 M NaCl for 90 seconds. […] In order to be able to correct for small variations in DMSO concentration between samples, eight solvent samples ranging from 0.06 to 8% DMSO were injected every 50th cycle. The flow cell temperature was 10° C.

Assay [2] addresses T1, PP1c. In words: SPR binding to PP1c alone immobilized on chip. Particulars: PP1c alone, read-out: affinity (KD) for PP1. As for the experimental part: as §4
as §5, with “binding. Then, without regenerating the surface, the compound dilution series was injected onto the surface of the chip at a flow rate of 30 μl/min for 1 minute, followed by 2 minutes dissociation time.” for “binding.”
Kinetic experiments are carried out using different concentrations of the compound and their respective equilibrium binding levels determined.
(SPR reads the build-up and loss of mass on a sensor chip optically.)

This note sets out measurements from patent US11364211B2, “Methods for selecting phosphatase selective and non-selective phosphatase inhibitors” (MEDICAL RESEARCH COUNCIL, priority 2015, dated 2022).

pKd: −log10 of the molar value.

T3 sequence (Q5SWA1 340-698): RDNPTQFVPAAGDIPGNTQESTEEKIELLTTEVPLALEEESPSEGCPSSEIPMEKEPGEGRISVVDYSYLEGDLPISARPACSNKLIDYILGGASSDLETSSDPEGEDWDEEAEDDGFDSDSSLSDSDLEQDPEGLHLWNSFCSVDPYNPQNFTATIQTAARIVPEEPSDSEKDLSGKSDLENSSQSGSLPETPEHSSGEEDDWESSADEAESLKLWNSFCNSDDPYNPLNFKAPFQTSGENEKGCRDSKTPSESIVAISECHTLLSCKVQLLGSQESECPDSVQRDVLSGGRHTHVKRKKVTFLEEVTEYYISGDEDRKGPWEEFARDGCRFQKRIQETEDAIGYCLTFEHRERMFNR
T3 sequence (P36873 whole entry partner, the tested form may be a part): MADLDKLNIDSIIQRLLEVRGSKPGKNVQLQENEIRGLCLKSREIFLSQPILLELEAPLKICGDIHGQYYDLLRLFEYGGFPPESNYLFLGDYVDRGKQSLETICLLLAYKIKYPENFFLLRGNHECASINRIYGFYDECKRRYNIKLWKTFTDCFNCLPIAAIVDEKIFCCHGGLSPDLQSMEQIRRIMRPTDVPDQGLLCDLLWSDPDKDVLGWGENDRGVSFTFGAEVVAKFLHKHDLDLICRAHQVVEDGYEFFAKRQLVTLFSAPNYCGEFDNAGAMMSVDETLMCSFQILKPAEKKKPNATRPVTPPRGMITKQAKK
T2 sequence (O75807 325-636): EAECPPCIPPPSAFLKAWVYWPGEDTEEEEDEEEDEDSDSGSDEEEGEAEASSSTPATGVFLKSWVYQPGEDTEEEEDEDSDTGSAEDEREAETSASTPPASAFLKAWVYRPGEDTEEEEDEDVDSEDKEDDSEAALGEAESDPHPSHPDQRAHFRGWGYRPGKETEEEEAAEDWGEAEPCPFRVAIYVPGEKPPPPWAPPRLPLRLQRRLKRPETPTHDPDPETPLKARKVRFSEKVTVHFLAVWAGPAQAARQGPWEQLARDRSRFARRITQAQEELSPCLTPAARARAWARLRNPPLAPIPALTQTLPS
T2 sequence (P36873 whole entry partner, the tested form may be a part): as the sequence (P36873 whole entry partner, the tested form may be a part) above
T1 sequence (P36873 whole entry): as the sequence (P36873 whole entry partner, the tested form may be a part) above

Regarding `COC[C@@H]([C@H](O)[C@H](O)C(=O)NCC[C@H](C)c1nc(/C=C/C[C@@H]2O[C@]3(C[C@@H](O)[C@@H]2C)O[C@H]([C@H](C[C@H](O)[C@H](C)[C@H](O)[C@H](C)/C=C(C)/C(C)=C/C=C/C(C)=C\C#N)OC)[C@H](OP(=O)(O)O)C3(C)C)co1)N(C)C` [calyculin A, reference compound], the “inhibition of PP1c in enzymatic assay” value against PP1c [1] is given as “a catalytic inhibitor of PP1”.

`N=C(N)N/N=C/c1cc(Cl)c(Cl)c(Cl)c1` [Example 3, (E)-2-(3,4,5-trichlorobenzylidene)hydrazine-1-carboximidamide] gave a pKd at PPP1R15A-PP1 complex of 5.41.

Turning to `O=C(/C=C/c1ccccc1)NC(NC(=S)Nc1cccc2cccnc12)C(Cl)(Cl)Cl` (centres unmarked) [Salubrinal], the negative-log Kd (pKd) at PPP1R15B-PP1 complex, at PPP1R15A-PP1 complex and on PP1c [2] was less than 4.70 throughout.

Consider `N=C(N)N/N=C/c1ccc(F)cc1Cl` [Example 2, (E)-2-(2-chloro-4-fluorobenzylidene)hydrazine-1-carboximidamide], for which the pKd at PPP1R15B-PP1 complex was 6.84; at PPP1R15A-PP1 complex it was 5.30. Besides, the “difference in affinities between PPP1R15A-PP1 and PPP1R15B-PP1” value at PPP1R15B-PP1 complex (from SPR KD values) is listed as “greater than 30 fold”.

For orientation: pKd means the Kd on a negative log10 scale, so that one unit is a factor of ten.
